Test results taken from ChEMBL document CHEMBL4715709, “Synthesis and evaluation of anticonvulsant properties of new N-Mannich bases derived from 3-(1-phenylethyl)- and 3-benzyl-pyrrolidine-2,5-dione” (Bioorg Med Chem Lett, 2016).
The source made the active and inactive calls. No cut-off for these calls is given here.

Key:
[1] = Neurotoxicity activity in ip dosed mouse assessed as induction of motor impairment by rotarod test; type: toxicity, organism-based; details: in vivo
Mus musculus [2] = experiment: Anticonvulsant activity in ip dosed mouse assessed as protection against tonic-clonic seizures by maximal electroshock seizure test; type: functional
Mus musculus [3] = experiment: Anticonvulsant activity in ip dosed mouse assessed as protection against ScPTZ-induced epilepsy by subcutaneous pentylenetetrazole test; type: functional
[4] = Protection index, ratio of TD50 for neurotoxicity in ip dosed mouse to ED50 for anticonvulsant activity in ip dosed mouse by maximal electroshock seizure test; type: toxicity, organism-based; details: in vivo, read-out: PI
[5] = Protection index, ratio of TD50 for neurotoxicity in ip dosed mouse to ED50 for anticonvulsant activity in ip dosed mouse by subcutaneous pentylenetetrazole test; type: toxicity, organism-based; details: in vivo, read-out: PI
[6] = Neurotoxicity in ip dosed mouse assessed as minimum dose required for induction of motor impairment measured after 4 hrs by rotarod test; type: toxicity, organism-based; details: in vivo
Mus musculus [7] = experiment: Anticonvulsant activity in mouse assessed as protection against tonic-clonic seizures at 300 mg/kg, ip measured after 0.5 hrs by maximal electroshock seizure test; type: functional, organism-based
Mus musculus [8] = experiment: Anticonvulsant activity in mouse assessed as protection against tonic-clonic seizures at 300 mg/kg, ip measured after 4 hrs by maximal electroshock seizure test; type: functional, organism-based
Mus musculus [9] = experiment: Anticonvulsant activity in mouse assessed as protection against ScPTZ-induced epilepsy at 300 mg/kg, ip measured after 0.5 hrs by subcutaneous pentylenetetrazole test; type: functional, organism-based
Mus musculus [10] = experiment: Anticonvulsant activity in mouse assessed as protection against ScPTZ-induced epilepsy at 300 mg/kg, ip measured after 4 hrs by subcutaneous pentylenetetrazole test; type: functional, organism-based
[11] = Neurotoxicity in mouse assessed as induction of motor impairment at 300 mg/kg, ip measured after 0.5 hrs by rotarod test; type: toxicity, organism-based; details: in vivo
Mus musculus [12] = experiment: Anticonvulsant activity in ip dosed mouse assessed as protection against ScPTZ-induced epilepsy measured after 0.25 hrs by subcutaneous pentylenetetrazole test; type: functional
Mus musculus [13] = experiment: Anti-convulsant activity in ip dosed mouse assessed as protection against psychomotor seizures measured after 0.25 hrs by 6 Hz limbic seizure test; type: functional
Mus musculus [14] = experiment: Anti-convulsant activity in ip dosed mouse assessed as protection against psychomotor seizures measured after 0.5 hrs by 6 Hz limbic seizure test; type: functional
[15] = Protection index, ratio of TD50 for neurotoxicity in ip dosed mouse to ED50 for anticonvulsant activity in ip dosed mouse measured after 0.5 hrs by 6 Hz limbic seizure test; type: toxicity, organism-based; details: in vivo, read-out: PI
Mus musculus [16] = experiment: Anticonvulsant activity in ip dosed mouse assessed as protection against ScPTZ-induced epilepsy measured after 0.5 hrs by subcutaneous pentylenetetrazole test; type: functional
Mus musculus [17] = experiment: Anticonvulsant activity in ip dosed mouse assessed as minimum dose required for protection against ScPTZ-induced epilepsy measured after 0.5 hrs by subcutaneous pentylenetetrazole test; type: functional
[18] = Neurotoxicity in ip dosed mouse assessed as minimum dose required for induction of motor impairment measured after 0.5 hrs by rotarod test; type: toxicity, organism-based; details: in vivo
Mus musculus [19] = experiment: Anticonvulsant activity in ip dosed mouse assessed as protection against ScPTZ-induced epilepsy measured after 4 hrs by subcutaneous pentylenetetrazole test; type: functional
[20] = Neurotoxicity in mouse assessed as induction of motor impairment at 300 mg/kg, ip measured after 4 hrs by rotarod test; type: toxicity, organism-based; details: in vivo
[21] = Protection index, ratio of TD50 for neurotoxicity in ip dosed mouse to ED50 for anticonvulsant activity in ip dosed mouse measured after 4 hrs by subcutaneous pentylenetetrazole test; type: toxicity, organism-based; details: in vivo, read-out: PI
Mus musculus [22] = experiment: Anticonvulsant activity in ip dosed mouse assessed as minimum dose required for protection against tonic-clonic seizures measured after 0.5 hrs by maximal electroshock seizure test; type: functional
Mus musculus [23] = experiment: Anticonvulsant activity in ip dosed mouse assessed as minimum dose required for protection against tonic-clonic seizures measured after 4 hrs by maximal electroshock seizure test; type: functional
Mus musculus [24] = experiment: Anticonvulsant activity in ip dosed mouse assessed as minimum dose required for protection against ScPTZ-induced epilepsy measured after 4 hrs by subcutaneous pentylenetetrazole test; type: functional
Mus musculus [25] = experiment: Anti-convulsant activity in mouse assessed as protection of animals against psychomotor seizures at 100 mg/kg, ip measured after 0.5 hrs by 6 Hz limbic seizure test; type: functional
Mus musculus [26] = experiment: Anti-convulsant activity in mouse assessed as protection of animals against psychomotor seizures at 100 mg/kg, ip measured after 4 hrs by 6 Hz limbic seizure test; type: functional
[27] = Protection index, ratio of TD50 for neurotoxicity in ip dosed mouse to ED50 for anticonvulsant activity in ip dosed mouse measured after 0.5 hrs by subcutaneous pentylenetetrazole test; type: toxicity, organism-based; details: in vivo, read-out: PI
Homo sapiens [28] = species on record: Homo sapiens; experiment: Inhibition of Sodium channel site 2 (unknown origin) at 100 uM
Homo sapiens [29] = species on record: Homo sapiens; experiment: Inhibition of L-type calcium channel (unknown origin) at 100 uM
Homo sapiens [30] = species on record: Homo sapiens; experiment: Inhibition of NMDA receptor (unknown origin) at 100 uM
Homo sapiens [31] = species on record: Homo sapiens; experiment: Inhibition of GABAA receptor (unknown origin) at 100 uM

SMILES	TD50 [1]	Activity (Mus musculus [7])	Activity (Mus musculus [8])	Activity (Mus musculus [9])	Activity (Mus musculus [10])	ED50 (Mus musculus [14])	selectivity ratio at 0.5 h [15]	MED=>50 (Mus musculus [17])	MTD50 [18]	Activity [20]	minimum effective dose (Mus musculus [22])	MED=>50 (Mus musculus [23])	MED=>50 (Mus musculus [24])	Activity (Mus musculus [25])	Activity (Mus musculus [26])	also measured
O=C1CC(C(c2ccccc2)c2ccccc2)C(=O)N1CN1CCN(c2cccc(C(F)(F)F)c2)CC1 (stereo not given)	> 500 mg/kg															ED50 (Mus musculus [2]): 101 mg/kg; ED50 (Mus musculus [3]): 73 mg/kg; selectivity ratio [4]: > 4.95; selectivity ratio [5]: > 6.84
O=C1CC(Cc2ccccc2)C(=O)N1CN1CCN(c2ccc(Cl)cc2)CC1 (racemic)		inactive	inactive	inactive	inactive											MTD50 [6]: 300 mg/kg; Activity [11]: Non-Toxic
CCC1(C)CC(=O)NC1=O (stereo not given) [ETHOSUXIMIDE]																ED50 (Mus musculus [12]): 140 mg/kg; ED50 (Mus musculus [13]): > 200 mg/kg
COC[C@@H](NC(C)=O)C(=O)NCc1ccccc1 [LACOSAMIDE]						6 mg/kg	5.66									
CCCC(CCC)C(=O)O [VALPROIC ACID]						131 mg/kg										ED50 (Mus musculus [16]): 239 mg/kg
COc1ccccc1N1CCN(CN2C(=O)CC(C(C)c3ccccc3)C2=O)CC1 (stereo not given)	128 mg/kg	inactive	inactive		inactive			30 mg/kg	300 mg/kg	Non-Toxic						ED50 (Mus musculus [19]): 48 mg/kg; selectivity ratio at 4 h [21]: 2.66
O=C1CC(Cc2ccccc2)C(=O)N1CN1CCN(c2ccc(F)cc2)CC1 (racemic)				inactive	inactive				300 mg/kg		300 mg/kg	300 mg/kg				MTD50 [6]: 300 mg/kg
CN1CCN(CN2C(=O)CC(Cc3ccccc3)C2=O)CC1.Cl (racemic)	324 mg/kg		inactive			65 mg/kg	5	100 mg/kg		Non-Toxic	300 mg/kg		300 mg/kg	66%	0%	ED50 (Mus musculus [16]): 95 mg/kg; selectivity ratio at 0.5 h [27]: 3.41; Activity [11]: Non-Toxic
O=C1CC(Cc2ccccc2)C(=O)N1CN1CCOCC1 (racemic)	179 mg/kg					53 mg/kg	3.37	100 mg/kg	300 mg/kg	Non-Toxic	300 mg/kg	300 mg/kg	100 mg/kg	100%	0%	ED50 (Mus musculus [16]): 87 mg/kg; selectivity ratio at 0.5 h [27]: 2.05
CC(c1ccccc1)C1CC(=O)N(CN2CCN(CCO)CC2)C1=O.Cl (racemic)	290 mg/kg		inactive			30 mg/kg	9.66	300 mg/kg	300 mg/kg	Non-Toxic	300 mg/kg		300 mg/kg	100%	0%	
O=C1CC(Cc2ccccc2)C(=O)N1CN1CCN(c2ccc(Cl)c(Cl)c2)CC1 (racemic)	246 mg/kg	inactive						300 mg/kg				300 mg/kg	100 mg/kg	0%	0%	MTD50 [6]: 300 mg/kg; ED50 (Mus musculus [19]): 106 mg/kg; Activity [11]: Non-Toxic; selectivity ratio at 4 h [21]: 2.32
CC(c1ccccc1)C1CC(=O)N(CN2CCN(C3CCCCC3)CC2)C1=O (racemic)	196 mg/kg	inactive	inactive		inactive	75 mg/kg	2.61	100 mg/kg	300 mg/kg	Non-Toxic				100%	0%	ED50 (Mus musculus [16]): 101 mg/kg; selectivity ratio at 0.5 h [27]: 1.94
O=C1CC(Cc2ccccc2)C(=O)N1CN1CCN(c2ncccn2)CC1 (racemic)		inactive	inactive	inactive					300 mg/kg				100 mg/kg			MTD50 [6]: 300 mg/kg
Cl.O=C1CC(Cc2ccccc2)C(=O)N1CN1CCN(CCO)CC1 (racemic)	344 mg/kg		inactive	inactive		71 mg/kg	4.85		300 mg/kg	Non-Toxic	300 mg/kg		300 mg/kg	100%	0%	
O=C1CC(Cc2ccccc2)C(=O)N1CN1CCN(c2cccc(C(F)(F)F)c2)CC1 (racemic)				inactive	inactive				300 mg/kg	Non-Toxic	300 mg/kg	300 mg/kg				
CC(c1ccccc1)C1CC(=O)N(CN2CCN(c3cccc(C(F)(F)F)c3)CC2)C1=O (racemic)		inactive		inactive	inactive					Non-Toxic		300 mg/kg				Activity [11]: Non-Toxic
CC(c1ccccc1)C1CC(=O)N(CN2CCOCC2)C1=O (racemic)				inactive	inactive				300 mg/kg	Non-Toxic	300 mg/kg	300 mg/kg				
CC(c1ccccc1)C1CC(=O)N(CN2CCN(C)CC2)C1=O.Cl (racemic)	229 mg/kg		inactive			36 mg/kg	6.36	30 mg/kg	300 mg/kg	Non-Toxic	300 mg/kg		300 mg/kg	100%	0%	ED50 (Mus musculus [16]): 39 mg/kg; selectivity ratio at 0.5 h [27]: 5.87; inhibition (Homo sapiens [28]): < 50%; inhibition (Homo sapiens [29]): < 50%; inhibition (Homo sapiens [30]): < 50%; inhibition (Homo sapiens [31]): < 50%
